Reference: patent publication US20230123334A1, “AMINO LIPID COMPOUND, PREPARATION METHOD THEREFOR, AND APPLICATION THEREOF” (SHENZHEN SHENXIN BIOTECHNOLOGY CO., LTD., priority 2020, published 2023)

Assays:
Assay type in all cases: cell-based
[1] = test system: embryonic stem cells (hESC2); test: Screening as mRNA vectors in embryonic stem cells; conditions: 50 ng EGFP mRNA per well
Experimental: (§1) Cell line: embryonic stem cells (hESC2, cultured according to reported methods: Stem Cells, 2005, 23, 544-549)
(§2) Medium: mTeSR1 (STEMCELL)
Mode of screening: cell transfection on 96-well plate
(§3) Detection (readout): percentage of the number of GFP fluorescent cells relative to the total number of cells. Lipofectamine Stem was used as the positive control.
Method: the experimental method was basically the same with Example 10, and the mass of EGFP mRNA for transfection was 50 ng per well.

[2] = test system: embryonic stem cells (hESC2); test: Screening as DNA vectors in embryonic stem cells, flow cytometry; conditions: 75 ng plasmid DNA, 48 hours after transfection, flow cytometer
Excerpt: as §1, §2
(§4) Mode of screening: cell transfection on 96-well plates
as §3
Method: an 8-channel pipette was used for sample addition. The contents shown were for a single well of a 96-well flat plate.
1. Stem cells were cultured to 3-5×10^4 cells per well in a 96-well plate treated with matrigel.
2. The compound (0.01 mmol) prepared in Example 1 was dissolved in 1 mL of anhydrous ethanol. After ultrasonically dissolved, 10 μL of the resultant amino lipid solution in ethanol was taken and mixed with 5 μL of DOPE solution in ethanol ([…]). The obtained mixture was then added with 35 μL of 0.2 M sodium acetate buffer (pH 5.6), and vortexed at a constant rotating speed for 30 s. Then, 4 μL was taken from the obtained product and added to 46 μL of 0.02 M sodium acetate buffer (pH 5.6), and vortexed at a constant rotating speed for 30 s to form a liposome solution. 5 μL of this liposome solution was mixed with 75 ng of plasmid DNA (pSin-EGFP-IRES-Puro) dissolved in 5 μL of 0.02 M sodium acetate buffer, and allowed to stay at room temperature for 30 min to form a lipid/DNA transfection complex.
3. 10 μL of the lipid/DNA transfection complex was incubated at room temperature for 30 min, followed by addition of 90 μL mTeSR1 medium was added and mixing with a pipette. 100 μL of the mixture was added to separate wells of a 96-well culture plate and placed in an incubator containing 5% CO2 at 37° C.
4. 48 hours after transfection, the cells were digested with 0.05% Trypsin-EDTA. The cells were resuspended in a PBS buffer and filtered. The cell suspension was placed in a flow cytometer and the number of GFP-expressing cells in no less than 2000 cells was measured so as to obtain the absolute efficiency of cell transfection. The relative efficiency of cell transfection was obtained by comparing the cell transfection efficiency with the positive control Lipofectamine Stem.

cardiomyocytes [3] = test: Screening as DNA vectors in cardiomyocytes; set-up: concentration or dose not given beside the values; conditions: method as Example 4
Experimental: Cell line: cardiomyocytes (obtained from induced differentiation of hESC according to reported methods: J. Mol. Cell. Cardiol. 2011, 51, 288-298)
(§5) Medium: DMEM supplemented with 10% fetal bovine serum (Invitrogen)
as §4
(§6) Detection (readout): percentage of the number of GFP fluorescent cells relative to the total number of cells (the total number of cells was determined using nucleus dye Hoechst). Lipofectamine Stem (Invitrogen) was used as the positive control, according to the manufacturer's instructions.
Method: the experimental method was basically the same with Example 4.

MCF7 cells [4] = test: Transfection of MCF7 cell line, mRNA vectors; conditions: 50 ng EGFP mRNA per well
Procedure, shortened: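 MCF7 cells in DMEM with fetal bovine serum were transfected with 50 ng EGFP mRNA per well. Read-out was the percentage of GFP-positive cells among total Hoechst-stained nuclei, with Lipofectamine2000 as positive control.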

Hela cells [5] = test: Transfection of Hela cell line, mRNA vectors; conditions: 50 ng EGFP mRNA per well
Procedure, shortened: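 HeLa cells in DMEM with 10% FBS transfected with 50 ng EGFP mRNA per well. Readout is percentage of GFP-positive cells among total cells counted by Hoechst nuclear stain; Lipofectamine2000 served as positive control.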

cardiomyocytes [6] = test: Screening as mRNA vectors in cardiomyocytes; conditions: 50 ng EGFP mRNA per well
Experimental: Cell line: cardiomyocytes (obtained from induced differentiation of hESC according to reported methods: J Mol. Cell. Cardiol. 2011, 51, 288-298)
as §5, §4, §6
Method: the experimental method was basically the same with Example 4, and the mass of EGFP mRNA for transfection was 50 ng per well.

MCF7 cells [7] = test: Transfection of MCF7 cell line, DNA vectors; set-up: concentration or dose not given beside the values; conditions: plasmid DNA, GFP cells / total cells
Procedure, shortened: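 MCF7 cells in DMEM with fetal bovine serum were transfected in 96-well format. Read-out was the percentage of GFP-fluorescent cells among total cells counted by Hoechst nuclear stain. Lipofectamine2000 served as positive control.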

Hela cells [8] = test: Transfection of Hela cell line, DNA vectors; conditions: 75 ng plasmid DNA, GFP cells / total cells
Procedure, shortened: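 Amino lipid/DOPE liposomes in sodium acetate pH 5.6 were complexed with 75 ng psin-EGFP-IRES-Puro plasmid for 30 min at room temperature, then mixed with 3-5×10^4 Hela cells in DMEM/10% FBS at 37° C. Hoechst stain after 20-24 h, imaging after a further 20-24 h. Efficiency = GFP-positive cells / total nuclei.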

Row | SMILES | Absolute mRNA transfection efficiency in embryonic stem cells [1] | Absolute DNA transfection efficiency in embryonic stem cells [2] | Absolute DNA transfection efficiency in cardiomyocytes (cardiomyocytes [3]) | Absolute mRNA transfection efficiency in MCF7 cells (MCF7 cells [4]) | Absolute mRNA transfection efficiency in Hela cells (Hela cells [5]) | Absolute mRNA transfection efficiency in cardiomyocytes (cardiomyocytes [6]) | Absolute DNA transfection efficiency in MCF7 cells (MCF7 cells [7]) | Absolute DNA transfection efficiency in Hela cells (Hela cells [8])
1 | CCCCCCCCCCCCSc1nc(NCCN2CCN(C)CC2)nc(SCCCCCCCC)n1 [Compound S8S12D5] | 24.9% | 1.7% | 2.4% | 32.6% | 12.4% | 2.5% | 26.3% | 12.4%
2 | CCCCCCCCCCCCSc1nc(NCCCN(C)C)nc(SCCCCCCCC)n1 [Compound S8S12D6] | 7.1% | 3.3% | 1.6% | 50.0% | 6.3% | 44.9% | 34.4% | 6.3%
3 | CCCCCCCCCCCCSc1nc(NCCCN2CCOCC2)nc(SCCCCCCCC)n1 [Compound S8S12D8] | 0.7% | 5.9% | 1.9% | 14.0% | 17.2% | 0.7% | 37.7% | 17.2%
4 | CCCCCCCCCCCCSc1nc(NCCCN2CCN(C)CC2)nc(SCCCCCCCC)n1 [Compound S8S12D9] | 16.3% | 2.9% | 1.0% | 5.3% | 1.7% | 14.0% | 13.1% | 1.7%
5 | CCCCCCCCCCCCSc1nc(NCC2CCN(C)CC2)nc(SCCCCCCCC)n1 [Compound S8S12D10] | 24.6% | 2.6% | 1.0% | 50.2% | 11.7% | 25.6% | 37.7% | 11.7%
6 | CCCCCCCCCCCNc1nc(NCCN2CCCC2)nc(SCCCCCCCCC)n1 [Compound S9N11D3] | 1.7% | 0.4% | 0.4% | 7.9% | 21.8% | 16.7% | 26.6% | 21.8%
7 | CCCCCCCCCCCNc1nc(NCCN2CCN(C)CC2)nc(SCCCCCCCCC)n1 [Compound S9N11D5] | 3.3% | 3.0% | 2.5% | 18.0% | 22.5% | 18.0% | 17.8% | 22.5%
8 | CCCCCCCCCCCNc1nc(NCCCN(C)C)nc(SCCCCCCCCC)n1 [Compound S9N11D6] | 5.8% | 1.4% | 1.9% | 37.2% | 27.7% | 5.0% | 32.6% | 27.7%
9 | CCCCCCCCCCCNc1nc(NCCCN2CCOCC2)nc(SCCCCCCCCC)n1 [Compound S9N11D8] | 5.9% | 0.6% | 0.8% | 2.7% | 13.9% | 4.4% | 13.1% | 13.9%
10 | CCCCCCCCCCCNc1nc(NCCCN2CCN(C)CC2)nc(SCCCCCCCCC)n1 [Compound S9N11D9] | 2.9% | 6.6% | 1.1% | 11.8% | 24.6% | 45.4% | 27.3% | 24.3%
11 | CCCCCCCCCCCNc1nc(NCC2CCN(C)CC2)nc(SCCCCCCCCC)n1 [Compound S9N11D10] | 2.6% | 2.2% | 2.7% | 20.2% | 21.3% | 45.3% | 36.6% | 21.2%
12 | CCCCCCCCCCCCNc1nc(NCCN2CCCC2)nc(SCCCCCCCCC)n1 [Compound S9N12D3] | 4.6% | 2.3% | 1.1% | 15.9% | 23.7% | 29.2% | 27.5% | 23.7%
13 | CCCCCCCCCCCCNc1nc(NCCN2CCN(C)CC2)nc(SCCCCCCCCC)n1 [Compound S9N12D5] | 10.5% | 2.5% | 4.0% | 16.6% | 24.1% | 25.5% | 13.7% | 24.1%
14 | CCCCCCCCCCCCNc1nc(NCCCN(C)C)nc(SCCCCCCCCC)n1 [Compound S9N12D6] | 6.1% | 1.9% | 1.7% | 22.4% | 35.5% | 5.3% | 21.8% | 35.5%
